Measured values taken from patent publication US5585504A, “Process of making cox-2 inhibitors having a lactone bridge” (Merck & Co., Inc., priority 1994, dated 1996).
Where two headings read alike, the source gives them in different places.

Tested on: carrageenan-induced paw edema
Assay: Rat paw edema assay (carrageenan)
Format: in vivo, Male Sprague-Dawley rats
Conditions: po, 1 hr before carrageenan, paw volume 3 hr after
Method: Male Sprague-Dawley rats (150-200g) were fasted overnight and were given po either vehicle (5% tween 80 or 1% methocel) or a test compound at 9-10 am. One hr later, a line was drawn using a permanent marker at the level above the ankle in one hind paw to define the area of the paw to be monitored. The paw volume (VOh) was measured using a plethysmometer (Ugo-Basile,Italy) based on the principle of water displacement. The animals were then injected subplantarly with 50 ul of a 1% carrageenan solution in saline (FMC Corp, Maine) into the paw using an insulin syringe with a 25-gauge needle (i.e. 500 ug carrageenan per paw). Three hr later, the paw volume (V3h) was measured and the increases in paw volume (V3h -VOh) were calculated. The animals were euthanized by CO2 aphyxiation and the absence or presence of stomach lesions scored. Stomach scores were expressed as the sum of total lesions in mm. Paw edema data were compared with the vehicle-control group and percent inhibition calculated taking the values in the control group as 100%. […] All treatment groups were coded to eliminate observer bias.

**Q.** With CS(=O)(=O)c1ccc(C2=C(c3ccc(F)c(Br)c3)C(=O)OC2)cc1 as the compound, how does the ED30 (Rattus norvegicus, 3 h, read-out: ED30 (Table I, column head not given)) read?
**A.** ~1 mg/kg

**Q.** How did the ED30 (Table I, column head not given) turn out when CS(=O)(=O)c1ccc(C2=C(c3ccc(Cl)c(Cl)c3)C(=O)OC2)cc1 was run?
**A.** 0.23 mg/kg

**Q.** With COc1ccc2c(c1)c(CC(=O)O)c(C)n2C(=O)c1ccc(Cl)cc1 [Indomethacin, reference compound] as the compound, how does the ED30 (read-out: ED30) read?
**A.** 1 mg/kg
